Results: patent publication US10183015B2, “Heterocyclic compounds and methods of use” (Medivation Technologies LLC, priority 2015, dated 2019)
Where “and” joins values, the source holds several entries; their conditions need not be identical. Equal entries are not always repeated.

How the values were obtained:
Format in all cases: in vivo
[1] = test system: diet-induced NASH obese insulin resistant mice; experiment: DIN mouse model: liver oil red O staining (% labeling)
Protocol: (§1) Male C57Bl/6J mice (8 weeks old) were housed in enriched ventilated cages (31×12.5×12.7 cm) throughout the experimental phase. Animals' cages litters were changed at least once a week. Animal were housed 5 per cage on inverted 12-hour light cycle (at 09:00 am lights off), 22±2° C. and 55±10% relative humidity. The acclimation period was 20 days. During the acclimation period, all mice were fed a standard diet (RM1 (E) 801492, SDS) and tap water ad libitum. After the acclimation period, mice were fed with the DIN diet (60% fat, cholesterol enriched) and fructose-enriched tap water ad libitum until the end of the experiment.
(§2) At 6 weeks of diet, mice were 4-hour fasted (09:00 am to 1:00 pm) and blood (150 μl/EDTA) was collected at 01:00 pm by retro-orbital bleeding under isoflurane anesthesia. Mice were then allocated in 2 homogenous groups (n=12/group) according to their plasma levels of ALT (average levels: 685U/L), AST (average levels: 627U/L) and HOMA-IR index (average value: 4.7), into 2 homogenous groups (see values at day 0 in Tables 15A and 15B ALT/AST and Tables 16A and 16B for HOMA-IR). Mice were then treated once daily by oral gavage with vehicle (Group 1) or Compound #37 at 20 mg/kg (Group 2) for 70 days.
Slides having a single hepatic lobe section stained with H&E and […] were digitized using a Nanozoomer from Hamamatsu. Sections were evaluated with knowledge of groups. […]

MCP-1 = experiment: Short-term Paigen-diet NASH mouse model: hepatic MCP-1 gene expression (RT-qPCR); design: key to MCP-1 gene expression: 2DDct: expression relative to vehicle group, normalized to 18S (2^-ΔΔCt); key to MCP-1 gene expression: DDct: ΔCt (vs 18S) relative to vehicle group; conditions: 21 days
Protocol: To investigate whether Compound #37 prevents the development of pathology associated with NASH and steatosis in an acute exploratory disease model, a study was conducted using a diet-induced acute liver steatosis model in mice. As described below, in this study, C57BL/6J mice were initiated on the Paigen diet and simultaneously treated with Compound #37 (5, 20, and 40 mg/kg/day) or vehicle control (20% HPβCD 10 mL/kg/day) by oral gavage for 21 days.
After acclimation, 8-week old male C57Bl/6J mice (Charles River) weighing about 25 g were randomized in 4 groups according their body weight and treated once daily around noon by oral gavage with vehicle, or Compound #37 at various for 21 days as follows: Group 1: vehicle-20% (2-hydroxypropyl)-β-cyclodextrin (HP-β-CD) (n=10); Group 2: Compound #37, 5 mg/kg ([…]) Group 4: Compound #37, 40 mg/kg (n=10). During the treatment period, body weight and food intake (measured over 24h) were measured 3 times per week and once a week, respectively. During the acclimation, all mice were fed a standard diet (Special Diets Services RM1 (E), product no. 801492) and tap water ad libitum. After the acclimation period, mice were fed until the end of the experiment with a 60% high fat Paigen diet (60 kcal % fat, 1.25% cholesterol, and 0.5% cholate; D11061901, Research Diet) and tap water ad libitum.
(§3) Gene expression analysis. Hepatic expression levels of genes involved in lipid metabolism (FAS, SREBP1, ACC1, SCD1), cholesterol metabolism (HMG-CoAR, LDLR), SREBP proteolysis (SCAP, INSIG1), ER stress (PERK), oxidative stress (NRF2), inflammation (MCP-1), and fibrosis (collagen 1α1) were quantified by RTqPCR. Expression level was normalized to 18S gene expression and relative expression to vehicle group was calculated with the […] method.

SREBP1C = experiment: DIN mouse model: hepatic SREBP1C gene expression; design: key to 2^DDct: expression relative to vehicle group, normalized to 18S; conditions: 20 mg/kg group; for 18S: Gene Expression: SREBP1C table, 18S reference; for 2^DDct / DDct / Dct / SREBP1C: Gene Expression: SREBP1C
Protocol: as §3, §1, §2
Hepatic expression levels of genes involved in lipid (FAS, SREBP1, ACC1, SCD1), cholesterol metabolism (HMG-CoAR, LDLR), in SREBP proteolysis (SCAP, INSIG1), in ER stress (PERK), oxidative stress (NRF2), and inflammation (MCP-1) were not changed. However, expression of collagen 1α1, involved in liver fibrosis, was reduced by 66% in mice treated with Compound #37 (p<0.05 vs. vehicle).

## CC(C)Cc1cc(-c2nc(-c3ccc(NS(=O)(=O)C(F)(F)F)cc3Cl)cs2)ccn1 [Compound 37, N-(3-chloro-4-(2-(2-isobutylpyridin-4-yl)thiazol-4-yl)phenyl)-1,1,1-trifluoromethanesulfonamide]
[1]; 20 mg/kg group, mean, n 11
  O red Oil labeling: 12.1%
[1]; 20 mg/kg, individual animals
  O red Oil labeling: 12.9% and 15.1% and 0.9% and 18.6% and 19.3% and 21.3% and 0.3% and 8.3% and 19.5% and 13.0% and 4.2%
MCP-1; 5 mg/kg, group mean, n 10
  MCP-1 gene expression: 2DDct: 0.74
  MCP-1 gene expression: DDct: 0.62
  MCP-1 gene expression: Dct: 13.9
  MCP-1 gene expression: MCP-1: 26.2
MCP-1; 5 mg/kg, individual animals
  MCP-1 gene expression: 2DDct: 1.08 and 0.98 and 0.28 and 1.4 and 0.5 and 0.46 and 0.85 and 1.04 and 0.48 and 0.33
  MCP-1 gene expression: DDct: −0.11 and 0.03 and 1.82 and −0.49 and 0.99 and 1.11 and 0.24 and −0.06 and 1.07 and 1.59
  MCP-1 gene expression: Dct: 13.2 and 13.36 and 15.15 and 12.84 and 14.32 and 14.44 and 13.57 and 13.27 and 14.4 and 14.92
  MCP-1 gene expression: MCP-1: 26.68 and 26.47 and 26.76 and 26.19 and 26.35 and 27.79 and 25.17 and 25.06 and 25.54 and 26.04
MCP-1; 20 mg/kg, group mean, n 6
  MCP-1 gene expression: 2DDct: 2.15
  MCP-1 gene expression: DDct: −0.5
  MCP-1 gene expression: Dct: 12.8
  MCP-1 gene expression: MCP-1: 25
MCP-1; 20 mg/kg, individual animals
  MCP-1 gene expression: 2DDct: 1.27 and 2.99 and 4.08 and 3.73 and 0.54 and 0.26
  MCP-1 gene expression: DDct: −0.35 and −1.58 and −2.03 and −1.9 and 0.88 and 1.95
  MCP-1 gene expression: Dct: 12.98 and 11.75 and 11.3 and 11.43 and 14.21 and 15.28
  MCP-1 gene expression: MCP-1: 25.89 and 24.04 and 23.5 and 24.46 and 25.7 and 26.54
SREBP1C; individual animal, 20 mg/kg
  18S: 12.55 (2×) and 12.84 and 12.43 and 12.35 (2×) and 12.59 and 11.73 and 12.51 and 11.5 and 11.55
SREBP1C; mean, n 11
  18S: 12.3
  2^DDct: 0.96
  DDct: 0.28
  Dct: 13.6
  SREBP1C: 25.9
SREBP1C; individual animal
  2^DDct: 1.30 and 1.21 and 0.41 and 0.49 and 0.69 and 1.10 and 0.99 and 1.37 and 0.36 and 0.47 and 2.13
  DDct: −0.38 and −0.27 and 1.30 and 1.04 and 0.54 and −0.14 and 0.01 and −0.45 and 1.46 and 1.10 and −1.09
  Dct: 12.98 and 13.09 and 14.66 and 14.4 and 13.9 and 13.22 and 13.37 and 12.91 and 14.82 and 14.46 and 12.27
  SREBP1C: 25.53 and 25.64 and 27.5 and 26.83 and 26.25 and 25.81 and 25.1 and 25.42 and 26.32 and 26.01 and 24.62
